Measured values as given in patent US20170217946A1, “AMINO-SUBSTITUTED ISOXAZOLES” (Bayer Pharma Aktiengesellschaft, priority 2014, published 2017).

What follows are compounds tested against T1, human Bub1 (Homo sapiens, UniProt O43683) (assay: Bub1 kinase assay (TR-FRET)). Details: 10 μM ATP.
T1 construct: catalytic domain of human Bub1 (amino acids 704-1085); His6 (N); made in house; host or cells: insect cells (Hi5)
Format: biochemical
Excerpt: Bub1-inhibitory activity of compounds of the present invention was quantified employing the Bub1 TR-FRET assay as described in the following paragraphs.
N-terminally His6-tagged recombinant catalytic domain of human Bub1 (amino acids 704-1085), expressed in insect cells (Hi5) and purified by Ni-NTA affinity chromatography and subsequent size exclusion chromatography, was used as enzyme. As substrate for the kinase reaction the biotinylated peptide biotin-Ahx-VLLPKKSFAEPG (C-terminus in amid form) was used which can be purchased e.g. form the company Biosyntan (Berlin, Germany).
For the assay 50 nl of a 100 fold concentrated solution of the test compound in DMSO was pipetted into a black low volume 384 well microtiter plate (Greiner Bio-One, Frickenhausen, Germany), 2 μl of a solution of Bub1 in aqueous assay buffer [50 mM Tris/HCl pH 7.5, 10 mM magnesium chloride (MgCl2), 200 mM potassium chloride (KCl), 1.0 mM dithiothreitol (DTT), 0.1 mM sodium ortho-vanadate, 1% (v/v) glycerol, 0.01% (w/v) bovine serum albumine (BSA), 0.005% (v/v) Trition X-100 (Sigma), 1× Complete EDTA-free protease inhibitor mixture (Roche)] were added and the mixture was incubated for 15 min at 22° C. to allow pre-binding of the test compounds to the enzyme before the start of the kinase reaction. Then the kinase reaction was started by the addition of 3 μl of a solution of adenosine-tri-phosphate (ATP, 16.7 μM=>final conc. in the 5 μl assay volume is 10 μM) and substrate (1.67 μM=>final conc. in the 5 μl assay volume is 1 μM) in assay buffer and the resulting mixture was incubated for a reaction time of 60 min at 22° C. The concentration of Bub1 was adjusted depending of the activity of the enzyme lot and was chosen appropriate to have the assay in the linear range, typical concentrations were in the range of 200 ng/ml. The reaction was stopped by the addition of 5 μl of a solution of TR-FRET detection reagents (0.2 μM streptavidine-XL665 [Cisbio Bioassays, Codolet, France] and 1 nM anti-phosho-Serine antibody [Merck Millipore, cat. #35-001] and 0.4 nM LANCE EU-W1024 labeled anti-mouse IgG antibody [Perkin-Elmer, product no. AD0077, as an alternative a Terbium-cryptate-labeled anti-mouse IgG antibody from Cisbio Bioassays can be used]) in an aqueous EDTA-solution (50 mM EDTA, 0.2% (w/v) bovine serum albumin in 100 mM HEPES pH 7.5).
The resulting mixture was incubated 1 h at 22° C. to allow the formation of complex between the phosphorylated biotinylated peptide and the detection reagents. Subsequently the amount of phosphorylated substrate was evaluated by measurement of the resonance energy transfer from the Eu-chelate to the streptavidine-XL. Therefore, the fluorescence emissions at 620 nm and 665 nm after excitation at 350 nm was measured in a TR-FRET reader, e.g. a Rubystar or Pherastar (both from BMG Labtechnologies, Offenburg, Germany) or a Viewlux (Perkin-Elmer). The ratio of the emissions at 665 nm and at […] was taken as the measure for the amount of phosphorylated substrate. The data were normalised (enzyme reaction without inhibitor=0% inhibition, all other assay components but no enzyme=100% inhibition).

T1 sequence (O43683 704-1085): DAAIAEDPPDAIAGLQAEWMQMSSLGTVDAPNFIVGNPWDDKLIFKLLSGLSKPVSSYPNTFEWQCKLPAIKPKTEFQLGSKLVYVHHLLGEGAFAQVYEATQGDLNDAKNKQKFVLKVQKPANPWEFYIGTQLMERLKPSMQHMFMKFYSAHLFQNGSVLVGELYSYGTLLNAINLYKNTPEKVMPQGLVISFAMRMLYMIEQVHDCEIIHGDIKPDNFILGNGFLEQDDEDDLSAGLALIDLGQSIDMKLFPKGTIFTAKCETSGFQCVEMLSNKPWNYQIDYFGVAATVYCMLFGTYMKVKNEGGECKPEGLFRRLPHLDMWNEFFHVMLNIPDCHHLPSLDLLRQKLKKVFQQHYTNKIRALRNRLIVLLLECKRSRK

| SMILES | IC50 [µM] |
| --- | --- |
| Cc1noc(Nc2cnc(C(F)(F)F)cn2)c1C(=O)Nc1ccc(OC2CCN(CCC(F)(F)F)CC2)nc1 [Example 1a, 3-Methyl-5-{[5-(trifluoromethyl)pyrazin-2-yl]amino}-N-(6-{[1-(3,3,3-trifluoropropyl)-piperidin-4-yl]oxy}pyridin-3-yl)-1,2-oxazole-4-carboxamide] | > 20 |
| Cc1noc(Nc2cnc(C(=O)NC3CCN(CC(F)F)CC3)cn2)c1C(=O)Nc1ccc(F)c(F)c1 [Example 1b, N-[1-(2,2-Difluoroethyl)piperidin-4-yl]-5-({4-[(3,4-difluorophenyl)carbamoyl]-3-methyl-1,2-oxazol-5-yl}amino)pyrazine-2-carboxamide] | > 20 |
| Cc1noc(Nc2cnc(C(F)(F)F)cn2)c1C(=O)Nc1ccc(F)c(F)c1 [Example 1c, N-(3,4-Difluorophenyl)-3-methyl-5-{[5-(trifluoromethyl)pyrazin-2-yl]amino}-1,2-oxazole-4-carboxamide] | > 20 |
